According to patent US7862815B2, “Methods for inhibiting angiogenesis with inhibitors of proadrenomedullin N-terminal 20 peptide (PAMP)” (The United States of America as represented by the …, priority 2002, dated 2011):

Experiments:
[1] = system: athymic nude mice; experiment: DIVAA with angioreactors, Example 2 (peptides in matrigel); format: in vivo; settings: for concentration range at which angiogenesis begins: equimolar comparison, FIG. 4G
Protocol: Analysis and quantitation of angiogenesis was done using DIVAA as previously described (Martinez et al., J. Natl. Cancer Inst., 21; 94(16):1226-37, 2002; Guedez et al., Am. J. Pathol. 162, 1431-1439, 2003). Briefly, 10 mm long surgical-grade silicone tubes with only one end open (angioreactors) were filled with 20 μl of matrigel alone or mixed with AM, bFGF, VEGF, PAMP, and/or PAMP(12-20) at the indicated concentrations. Human lung cancer cell lines (see below) were also premixed with matrigel alone or in combination with PAMP(12-20) at 10,000 cells per angioreactor. After the matrigel solidified, the angioreactors were implanted into the dorsal flanks of anesthetized athymic nude mice (NCI colony). After eleven days, the mice were injected intravenously with 25 mg/ml FITC-dextran (100 μl/mouse, Sigma) 20 minutes before removing the angioreactors. Photographs of the implants were taken for visual examination of angiogenic response. Quantitation of neovascularization in the angioreactors was determined as the amount of fluorescence trapped in the implants and was measured in a HP Spectrophotometer (Perkin Elmer).
To further characterize this observation, an […] assay was employed that allows for more precise quantitation of angiogenic properties: the directed […] angiogenesis assay or DIVAA (Martinez et al., J. Natl. Cancer Inst., 21; 94(16): 1226-37, 2002; Guédez et al., Am. J. Pathol. 162, 1431-1439, 2003). The assay involves implanting small silicone capsules carrying the test substances under the skin of nude mice. After eleven days, the mice are injected with a specific amount of FITC-dextran, and the volume of blood circulating through the implant is quantified by measuring the fluorescence in the capsule. In addition, the new blood vessels growing into the silicone tube can be seen directly by transparency (FIG. 4A-F). […] The extent of the angiogenic response can be seen clearly when this response is compared with the negative control (FIG. 4A). The angiogenic response elicited by PAMP was dose-dependent (FIG. 4C-G). When compared to AM and VEGF responses at equimolar concentrations, a clear difference was observed.

[2] = system: human microvascular endothelial cells; experiment: Proliferation assay (MTT); format: cell-based; settings: three days; for endothelial cell proliferation over the control: 10^−8 M, serum-free medium, p<0.001
Protocol: The same microvascular endothelial cells were seeded in 96-well plates at a density of 2.0×10^5 cells per well in serum-free medium containing different concentrations of the test peptides. After three days in culture, the number of viable cells per well was estimated by the MTT assay as reported (Iwai et al., Lung Cancer 23, 209-222, 1999). Results are represented as percentage growth over the untreated control.

[3] = system: Human dermal microvascular endothelial cells; experiment: Calcium measurements (ATP-induced calcium flux); format: cell-based; settings: 10 nM PAMP, 1 mM ATP
Protocol: Human dermal microvascular endothelial cells were obtained from Cell Applications, Inc. and cultured in 96-well plates at 1.0×10^5 cells per well. The cells were loaded for 60 minutes at room temperature with the fluorescent dye FLIPR (Molecular Devices) and then transferred to the FlexStation II (Molecular Devices) for analysis. The test compounds were prepared in another plate at a concentration of 5× and were added to the proper wells by the robotic arm of the FlexStation II. Fluorescence was measured every five seconds in each well and recorded. One mM ATP (Sigma) was used as a calcium agonist (Lau et al., Life Sci. 73, 20 19-2028, 2003).

[4] = system: human endothelial cells; experiment: Cord formation assay on matrigel; format: cell-based; settings: overnight incubation on matrigel, FIG. 6C
Protocol: Human endothelial cells were seeded at 2.0×10^5 cells per well over a solid layer of matrigel covering the bottom of a 24-well plate in the presence or absence of the test peptides as described (Nam et al., Phytother. Res. 17, 107-111). After an overnight incubation, the tubular structures were photographed (three pictures per well) and the number of knots per photographic field were counted as a measure of lattice complexity.

Row | Substance | concentration range at which angiogenesis begins [1] | endothelial cell proliferation over the control [2] | dose dependence of angiogenic response ([1]; FIG. 4C-G) | concentrations eliciting an angiogenic response ([1]; implants 11 days under the skin of nude mice) [femtomols/L] | effect on ATP-induced calcium response [3] | endothelial cell growth ([2]; at the concentrations tested) | efficiency in inducing cord formation (knots per field) [4]
1 | Adrenomedullin [AM] | nanomolar concentrations | significantly increase proliferation | – | – | – | – | –
2 | proadrenomedullin N-terminal 20 peptide (ARLDVASEFRKKWNKWALSR; listed as Homo sapiens) [PAMP, 20 amino-acid molecule originating from the post-translational processing of pre-proadrenomedullin; synthetic human, purchased from Bachem] | femtomolar range | – | dose-dependent | ≥ 1 | greatly reduced | did not significantly modify cell growth | modest effect
3 | vascular endothelial growth factor [VEGF] | nanomolar concentrations | significantly increase proliferation | – | – | – | – | most efficient
